Test results: US10329295B2, “Pyrrolotriazine inhibitors of IRAK4 activity” (MERCK SHARP & DOHME CORP., priority 2015, dated 2019)
Structures can show the parent of a compound that is named as a salt.

Molecular target: GST tagged IRAK4 (Homo sapiens (Human), UniProt Q9NWZ3)
Experiment: IRAK4 Kinase Assay (IMAP fluorescence polarization)
Format: biochemical
Settings: 0.5 nM GST tagged IRAK4, 100 μM ATP, 30 minutes at 25° C.
Summary of the method: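 Phosphorylation of a fluorescent peptide (100 nM) was detected by IMAP nanoparticle binding as increased fluorescence polarization. The enzyme was GST-tagged IRAK4 at 0.5 nM, with 100 μM ATP, 1 mM MgCl2 and Tris-HCl pH 7.2. ATP-initiated reactions ran 30 minutes at 25° C.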

GST tagged IRAK4, sequence (Q9NWZ3 whole entry): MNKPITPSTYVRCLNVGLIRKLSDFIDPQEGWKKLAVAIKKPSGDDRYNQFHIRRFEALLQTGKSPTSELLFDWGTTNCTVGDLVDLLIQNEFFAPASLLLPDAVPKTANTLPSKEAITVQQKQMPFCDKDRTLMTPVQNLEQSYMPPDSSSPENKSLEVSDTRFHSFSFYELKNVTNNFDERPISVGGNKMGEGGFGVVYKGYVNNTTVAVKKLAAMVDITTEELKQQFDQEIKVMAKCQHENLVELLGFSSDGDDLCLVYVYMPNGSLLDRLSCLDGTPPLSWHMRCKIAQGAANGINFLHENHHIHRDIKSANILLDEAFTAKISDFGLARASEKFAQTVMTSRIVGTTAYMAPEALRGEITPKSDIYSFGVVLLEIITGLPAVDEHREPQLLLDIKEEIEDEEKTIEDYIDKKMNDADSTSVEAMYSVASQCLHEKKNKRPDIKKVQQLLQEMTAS

SMILES	IC50 [nM]
Cn1cc(NC(=O)c2ccc3cnc(N4CCC[C@@H](N)C4)nn23)c(C(F)(F)F)n1 [Example 7, 2-[(3R)-3-aminopiperidin-1-yl]-N-[1-methyl-3-(trifluoromethyl)-1H-pyrazol-4-yl]pyrrolo[2,1-f][1,2,4]triazine-7-carboxamide trifluoroacetate]	0.9
Cn1cc(NC(=O)c2ccc3cnc(N[C@@H]4CCC(F)(F)C[C@@H]4N)nn23)c(C(F)(F)F)n1 (single isomer, unassigned) [Example 132, 2-{[(1S,2R)- or (1R,2S)-2-amino-4,4-difluorocyclohexyl]amino}-N-[1-methyl-3-(trifluoromethyl)-1H-pyrazol-4-yl]pyrrolo[2,1-f][1,2,4]triazine-7-carboxamide trifluoroacetate]	655
Cn1cc(NC(=O)c2ccc3cnc(N[C@@H]4CCCC(F)(F)[C@@H]4N)nn23)c(Br)n1 [Example 89, 2-{[(1R,2R)-2-amino-3,3-difluorocyclohexyl]amino}-N-(3-bromo-1-methyl-1H-pyrazol-4-yl)pyrrolo[2,1-f][1,2,4]triazine-7-carboxamide trifluoroacetate]	373
O=C(Nc1ccccc1C(F)(F)F)c1ccc2cnc(N3C[C@@H]4CC[C@H]3CN4)nn12 (single isomer, unassigned) [Example 78, 2-[(1S,4S)- or (1R,4R)-2,5-diazabicyclo[2.2.2]oct-2-yl]-N-[2-(trifluoromethyl)phenyl]-pyrrolo[2,1-f][1,2,4]triazine-7-carboxamide trifluoroacetate]	1450
N[C@H]1CCCC[C@H]1Nc1ncc2ccc(C(=O)Nc3ccccc3Cl)n2n1 [Example 40, 2-{[(1R,2S)-2-aminocyclohexyl]amino}-N-(2-chlorophenyl)pyrrolo[2,1-f][1,2,4]triazine-7-carboxamide trifluoroacetate]	3
Cn1cc(NC(=O)c2ccc3cnc(N[C@@H]4CC(F)(F)CC[C@@H]4N)nn23)c(C(F)(F)F)n1 (single isomer, unassigned) [Example 131, 2-{[(1S,2R)- or (1R,2S)-2-amino-5,5-difluorocyclohexyl]amino}-N-[1-methyl-3-(trifluoromethyl)-1H-pyrazol-4-yl]pyrrolo[2,1-f][1,2,4]triazine-7-carboxamide trifluoroacetate]	4
Cn1cc(NC(=O)c2ccc3cnc(N4C[C@H]5CC[C@@H]4CN5)nn23)c(Cl)n1 (single isomer, unassigned) [Example 45, N-(3-chloro-1-methyl-1H-pyrazol-4-yl)-2-[(1S,4S)- or (1R,4R)-2,5-diazabicyclo[2.2.2]oct-2-yl]pyrrolo[2,1-f][1,2,4]triazine-7-carboxamide trifluoroacetate]	80
Cn1ncc(NC(=O)c2ccc3cnc(N[C@@H]4CCCC[C@@H]4N)nn23)c1C(F)(F)F [Example 70, 2-{[(1R,2S)-2-aminocyclohexyl]amino}-N-[1-methyl-5-(trifluoromethyl)-1H-pyrazol-4-yl]pyrrolo[2,1-f][1,2,4]triazine-7-carboxamide trifluoroacetate]	26
Cn1cc(NC(=O)c2ccc3cnc(N4CC5CCC4CN5)nn23)c(C(F)F)n1 (centres unmarked) [Example 29, 2-(2,5-diazabicyclo[2.2.2]oct-2-yl)-N-[3-(difluoromethyl)-1-methyl-1H-pyrazol-4-yl]pyrrolo[2,1-f][1,2,4]triazine-7-carboxamide trifluoroacetate]	7
N[C@H]1CCCC[C@H]1Nc1ncc2ccc(C(=O)Nc3ccccc3C(F)(F)F)n2n1 [Example 27, 2-{[(1R,2S)-2-aminocyclohexyl]amino}-N-[2-(trifluoromethyl)phenyl]-pyrrolo[2,1-f][1,2,4]triazine-7-carboxamide trifluoroacetate]	392
N#Cc1sccc1NC(=O)c1ccc2cnc(N[C@@H]3CCCNC3)nn12 [Example 146, N-(2-cyanothiophen-3-yl)-2-[(3R)-piperidin-3-ylamino]pyrrolo[2,1-f][1,2,4]triazine-7-carboxamide trifluoroacetate]	4
N#Cc1ccccc1NC(=O)c1ccc2cnc(N3C[C@H]4CC[C@@H]3CN4)nn12 (single isomer, unassigned) [Example 75, N-(2-cyanophenyl)-2-[(1S,4S)- or (1R,4R)-2,5-diazabicyclo[2.2.2]oct-2-yl]pyrrolo[2,1-f][1,2,4]triazine-7-carboxamide trifluoroacetate]	4000
Cn1cc(NC(=O)c2ccc3cnc(N4CCCNCC4)nn23)c(Cl)n1 [Example 26, N-(3-chloro-1-methyl-1H-pyrazol-4-yl)-2-(1,4-diazepan-1-yl)pyrrolo[2,1-f][1,2,4]triazine-7-carboxamide trifluoroacetate]	61
O=C(Nc1ccccc1Br)c1ccc2cnc(N3C[C@@H]4CC[C@H]3CN4)nn12 (single isomer, unassigned) [Example 84, N-(2-bromophenyl)-2-[(1S,4S)- or (1R,4R)-2,5-diazabicyclo[2.2.2]oct-2-yl]pyrrolo[2,1-f][1,2,4]triazine-7-carboxamide trifluoroacetate]	7810
O=C(Nc1cscc1Cl)c1ccc2cnc(N3CCCNCC3)nn12 [Example 105, N-(4-chlorothiophen-3-yl)-2-(1,4-diazepan-1-yl)pyrrolo[2,1-f][1,2,4]triazine-7-carboxamide trifluoroacetate]	4820
Cn1cc(NC(=O)c2ccc3cnc(N4C[C@H]5CC[C@@H]4CN5)nn23)c(C#N)n1 (single isomer, unassigned) [Example 47, N-(3-cyano-1-methyl-1H-pyrazol-4-yl)-2-[(1S,4S)- or (1R,4R)-2,5-diazabicyclo[2.2.2]oct-2-yl]pyrrolo[2,1-f][1,2,4]triazine-7-carboxamide trifluoroacetate]	265
Cn1cc(NC(=O)c2ccc3cnc(N4CCCNCC4)nn23)c(Br)n1 [Example 67, N-(3-bromo-1-methyl-1H-pyrazol-4-yl)-2-(1,4-diazepan-1-yl)pyrrolo[2,1-f][1,2,4]triazine-7-carboxamide trifluoroacetate]	39
N#Cc1sccc1NC(=O)c1ccc2cnc(N3CCCNCC3)nn12 [Example 43, N-(2-cyanothiophen-3-yl)-2-(1,4-diazepan-1-yl)pyrrolo[2,1-f][1,2,4]triazine-7-carboxamide trifluoroacetate]	1040
N#Cc1ccccc1NC(=O)c1ccc2cnc(N[C@@H]3CCCC(F)(F)[C@@H]3N)nn12 [Example 136, 2-{[(1R,2R)-2-amino-3,3-difluorocyclohexyl]amino}-N-(2-cyanophenyl)pyrrolo[2,1-f][1,2,4]triazine-7-carboxamide trifluoroacetate]	860
O=C(Nc1cscc1C(F)F)c1ccc2cnc(N3C[C@H]4CC[C@@H]3CN4)nn12 (single isomer, unassigned) [Example 81, 2-[(1S,4S)- or (1R,4R)-2,5-diazabicyclo[2.2.2]oct-2-yl]-N-[4-(difluoromethyl)thiophen-3-yl]pyrrolo[2,1-f][1,2,4]triazine-7-carboxamide trifluoroacetate]	63
Cn1cc(NC(=O)c2ccc3cnc(N[C@@H]4CCCC[C@@H]4O)nn23)c(C(F)(F)F)n1 [Example 3, 2-{[(1R,2S)-2-hydroxycyclohexyl]amino}-N-[1-methyl-3-(trifluoromethyl)-1H-pyrazol-4-yl]pyrrolo[2,1-f][1,2,4]triazine-7-carboxamide trifluoroacetate]	322
N#Cc1ccccc1NC(=O)c1ccc2cnc(N3C[C@@H]4CC[C@H]3CN4)nn12 (single isomer, unassigned) [Example 74, N-(2-cyanophenyl)-2-[(1S,4S)- or (1R,4R)-2,5-diazabicyclo[2.2.2]oct-2-yl]pyrrolo[2,1-f][1,2,4]triazine-7-carboxamide trifluoroacetate]	850
Cn1cc(NC(=O)c2ccc3cnc(N[C@@H]4CCCCNC4)nn23)c(C(F)F)n1 (single isomer, unassigned) [Example 90, 2-[(3S)- or (3R)-azepan-3-ylamino]-N-[3-(difluoromethyl)-1-methyl-1H-pyrazol-4-yl]pyrrolo[2,1-f][1,2,4]triazine-7-carboxamide trifluoroacetate]	0.7
O=C(Nc1ccccc1Br)c1ccc2cnc(N3CCCNCC3)nn12 [Example 33, N-(2-bromophenyl)-2-(1,4-diazepan-1-yl)pyrrolo[2,1-f][1,2,4]triazine-7-carboxamide trifluoroacetate]	5350
O=C(Nc1cscc1C(F)F)c1ccc2cnc(N3CCCNCC3)nn12 [Example 41, 2-(1,4-diazepan-1-yl)-N-[4-(difluoromethyl)thiophen-3-yl]pyrrolo[2,1-f][1,2,4]triazine-7-carboxamide trifluoroacetate]	88
Cn1cc(NC(=O)c2ccc3cnc(N[C@@H]4CCCNC4)nn23)c(C(F)F)n1 [Example 16, N-[3-(difluoromethyl)-1-methyl-1H-pyrazol-4-yl]-2-[(3R)-piperidin-3-ylamino]pyrrolo[2,1-f][1,2,4]triazine-7-carboxamide trifluoroacetate]	1
Cn1cc(NC(=O)c2ccc3cnc(N4CCCNCC4)nn23)c(C#N)n1 [Example 34, N-(3-cyano-1-methyl-1H-pyrazol-4-yl)-2-(1,4-diazepan-1-yl)pyrrolo[2,1-f][1,2,4]triazine-7-carboxamide trifluoroacetate]	352
O=C(Nc1ccccc1C(F)F)c1ccc2cnc(N3C[C@@H]4CC[C@H]3CN4)nn12 (single isomer, unassigned) [Example 61, 2-[(1S,4S)- or (1R,4R)-2,5-diazabicyclo[2.2.2]oct-2-yl]-N-[2-(difluoromethyl)phenyl]-pyrrolo[2,1-f][1,2,4]triazine-7-carboxamide trifluoroacetate]	10000
Cn1cc(NC(=O)c2ccc3cnc(N4C5CCC4CNC5)nn23)c(C(F)(F)F)n1 [Example 96, 2-(3,8-diazabicyclo[3.2.1]oct-8-yl)-N-[1-methyl-3-(trifluoromethyl)-1H-pyrazol-4-yl]pyrrolo[2,1-f][1,2,4]triazine-7-carboxamide trifluoroacetate]	5
